Assay [1] deals with DTH T cell subsets (L3T4+, Lyt-2+). The experiment in a line: DTH T cell subsets of mouse (DNFB, splenic lymphocytes, immunofluorescence). Conditions: 5 mg.
The subject of the next assay is interleukin-1 (IL-1). Kind of assay: IL-1 activity of LPS-induced peritoneal macrophages of adjuvant arthritis rats (thymocyte bioassay). Conditions: AA rats, 5 mg; 570 nm; model group 0.87 ± 0.03. In kind it is in vivo, rat. The method, then: Fizzer complete adjuvant (from Sigma Co.) was emulsified and injected subcutaneously and sterilely 0.1 ml into the right meta voix pedis of each rat (♂, 160±20 g) to establish a model of adjuvant-induced arthritis.
Preparation of peritoneal macrophage: Execute rats at 25th days after injecting complete adjuvant, then rapidly inject proper amount of Hank's solution into the belly of them, and rub their abdominal wall several times before collecting peritoneal fluid. Wash it with Hank's solution containing 5% calf serum twice, then prepare 1×10^6/mL cell suspension with wholly swelling RPMI1640. Transfer into a culture plate with 24 wells, 1 ml each well. Incubate them in a 5% CO2 incubator overnight at a temperature of 37° C., abandon the supernatant fluid, wash with pre-warmed Hank's solution containing 5% calf serum at 37° C. twice, and remove un-adherent cell. The residue was peritoneal macrophage.
2. IL-1 induction: Add 10 μg/mL lipopolysaccharide (LPS) to the above culture plate with 24 wells, then incubate for 24 hours, centrifuge (2000 rpm, 5 min), collect the […], and filter with micropore filter. This solution was the IL-1 sample to be detected. 3. […]

The structures appear in SMILES notation.

Take `C[C@]12C=CC(=O)C=C1CC[C@@H]1[C@@H]2C(=O)C[C@@]2(C)[C@H]1CC[C@]2(O)C(=O)CO` [Prednisone]: in assay [1], the “Cells number L3T4^+” value is on record as 59.6 ± 7.5%, the “Cells number Lyt-2^+” value turned out to be 56.2 ± 3.8 % and the “L3T4^+/Lyt-2^+” value is on record as 1.21 ± 0.14. Further, the “OD Value (IL-1 activity)” value with interleukin-1 (IL-1) came out at 0.34 ± 0.02.
